Test results from publication PMC5218480 (PLoS ONE, 2017).

Test system: MV-4-11 cells
Assay: Gene expression microarray analysis (Affymetrix PrimeView) and GSEA
Assay type: cell-based, human
Parameters: RFU PODN (11730768_x_at) / Fold change /veh PODN (11730768_x_at) / RFU LINC00158 (11744669_a_at) / Fold change /veh LINC00158 (11744669_a_at) / RFU DUSP10 (11751237_a_at) / Fold change /veh DUSP10 (11751237_a_at) / RFU ID3 (11757404_x_at) / Fold change /veh ID3 (11757404_x_at) / RFU PLEKHG5 (11737974_s_at) / Fold change /veh PLEKHG5 (11737974_s_at) / RFU LRRC4B (11730491_at) / Fold change /veh LRRC4B (11730491_at) / RFU GIMAP4 (11747438_a_at) / Fold change /veh GIMAP4 (11747438_a_at) / RFU KRT8 (11758183_x_at) / Fold change /veh KRT8 (11758183_x_at) / RFU CNN1 (11734310_a_at) / Fold change /veh CNN1 (11734310_a_at) / RFU VPS37D (11726825_at) / Fold change /veh VPS37D (11726825_at) / RFU C10orf10 (11716522_x_at) / Fold change /veh C10orf10 (11716522_x_at) / RFU KIR2DL2 /// KIR2DL4 /// KIR2DL5A /// KIR2DL5B /// KIR2DS1 /// KIR2DS2 /// KIR2DS3 /// KIR2DS4 /// KIR3DL3 /// KIR3DL3 /// KIR3DS1 (11738374_at) / Fold change /veh KIR2DL2 /// KIR2DL4 /// KIR2DL5A /// KIR2DL5B /// KIR2DS1 /// KIR2DS2 /// KIR2DS3 /// KIR2DS4 /// KIR3DL3 /// KIR3DL3 /// KIR3DS1 (11738374_at) / RFU C1QL1 (11718748_at) / Fold change /veh C1QL1 (11718748_at) / RFU TMPRSS4 (11747572_a_at) / Fold change /veh TMPRSS4 (11747572_a_at) / RFU HAMP (11756126_x_at) / Fold change /veh HAMP (11756126_x_at) / RFU RNFT2 (11725882_a_at) / Fold change /veh RNFT2 (11725882_a_at) / RFU NR4A2 (11747474_a_at) / Fold change /veh NR4A2 (11747474_a_at) / RFU ABCC12 (11746883_a_at) / Fold change /veh ABCC12 (11746883_a_at) / RFU TMEM136 (11760407_x_at) / Fold change /veh TMEM136 (11760407_x_at) / RFU CLDN22 /// WWC2 (11732394_at) / Fold change /veh CLDN22 /// WWC2 (11732394_at) / RFU HLA-DPB1 (11760878_x_at) / Fold change /veh HLA-DPB1 (11760878_x_at) / RFU SPINT1 (11716480_a_at) / Fold change /veh SPINT1 (11716480_a_at) / RFU GAP43 (11754022_s_at) / Fold change /veh GAP43 (11754022_s_at) / RFU A4GNT (11735810_at) / Fold change /veh A4GNT (11735810_at) / RFU PRB3 (11715151_x_at) / Fold change /veh PRB3 (11715151_x_at) / RFU TUBB4B (11761932_at) / Fold change /veh TUBB4B (11761932_at) / RFU CAPN14 (11732068_a_at) / Fold change /veh CAPN14 (11732068_a_at) / RFU TMCC2 (11721928_a_at) / Fold change /veh TMCC2 (11721928_a_at) / RFU IRGQ (11745062_a_at) / Fold change /veh IRGQ (11745062_a_at) / RFU FAM174B (11720279_a_at) / Fold change /veh FAM174B (11720279_a_at) / RFU TMPRSS4 (11748680_a_at) / Fold change /veh TMPRSS4 (11748680_a_at) / RFU FAM212B (11763350_a_at) / Fold change /veh FAM212B (11763350_a_at) / RFU PLEKHG5 (11743358_a_at) / Fold change /veh PLEKHG5 (11743358_a_at) / RFU ZSCAN30 (11745921_a_at) / Fold change /veh ZSCAN30 (11745921_a_at) / RFU CMKLR1 (11741424_a_at) / Fold change /veh CMKLR1 (11741424_a_at) / RFU LOC101060620 /// MAPK8IP1 (11723275_at) / Fold change /veh LOC101060620 /// MAPK8IP1 (11723275_at) / RFU SPTSSB (11747773_x_at) / Fold change /veh SPTSSB (11747773_x_at) / RFU PRSS12 (11739890_at) / Fold change /veh PRSS12 (11739890_at) / RFU BIN1 (11741810_x_at) / Fold change /veh BIN1 (11741810_x_at) / RFU WNT11 (11732464_a_at) / Fold change /veh WNT11 (11732464_a_at) / RFU C10orf10 (11716521_a_at) / Fold change /veh C10orf10 (11716521_a_at) / RFU C5orf56 (11738089_at) / Fold change /veh C5orf56 (11738089_at) / RFU CYB561 (11721691_x_at) / Fold change /veh CYB561 (11721691_x_at) / RFU ANKRD19P (11752326_a_at) / Fold change /veh ANKRD19P (11752326_a_at) / RFU OR2T12 /// OR2T33 /// OR2T8 (11738714_s_at) / Fold change /veh OR2T12 /// OR2T33 /// OR2T8 (11738714_s_at) / RFU VCAN (11748164_a_at) / Fold change /veh VCAN (11748164_a_at) / RFU JSRP1 (11732532_at) / Fold change /veh JSRP1 (11732532_at) / RFU KRTAP10-11 (11738290_x_at) / Fold change /veh KRTAP10-11 (11738290_x_at) / RFU MYO3A (11730013_a_at) / Fold change /veh MYO3A (11730013_a_at) / RFU EBF3 (11725865_a_at) / Fold change /veh EBF3 (11725865_a_at) / RFU CAMK2N1 (11719241_x_at) / Fold change /veh CAMK2N1 (11719241_x_at) / RFU C5orf56 (11738088_a_at) / Fold change /veh C5orf56 (11738088_a_at) / RFU OLFML3 (11715873_a_at) / Fold change /veh OLFML3 (11715873_a_at) / RFU LOC100653217 /// NTM (11731650_a_at) / Fold change /veh LOC100653217 /// NTM (11731650_a_at) / RFU MAPK11 (11762145_a_at) / Fold change /veh MAPK11 (11762145_a_at) / RFU FIZ1 (11724087_x_at) / Fold change /veh FIZ1 (11724087_x_at) / RFU OASL (11726364_x_at) / Fold change /veh OASL (11726364_x_at) / RFU SOX15 (11748057_x_at) / Fold change /veh SOX15 (11748057_x_at) / RFU CD79A (11719716_a_at) / Fold change /veh CD79A (11719716_a_at) / RFU HIST1H1D (11736915_at) / Fold change /veh HIST1H1D (11736915_at) / RFU CASKIN2 (11723855_a_at) / Fold change /veh CASKIN2 (11723855_a_at) / RFU LOC730098 (11760151_x_at) / Fold change /veh LOC730098 (11760151_x_at) / RFU OR4N2 (11742367_at) / Fold change /veh OR4N2 (11742367_at) / RFU PRRT2 (11749266_a_at) / Fold change /veh PRRT2 (11749266_a_at) / RFU SNX32 (11753110_a_at) / Fold change /veh SNX32 (11753110_a_at) / RFU CDHR5 (11726645_a_at) / Fold change /veh CDHR5 (11726645_a_at) / RFU RCAN1 (11760418_a_at) / Fold change /veh RCAN1 (11760418_a_at) / RFU FAM167A (11723789_a_at) / Fold change /veh FAM167A (11723789_a_at) / RFU FAM26E (11764081_at) / Fold change /veh FAM26E (11764081_at) / RFU ISYNA1 (11749810_s_at) / Fold change /veh ISYNA1 (11749810_s_at) / RFU ACY1 (11761880_at) / Fold change /veh ACY1 (11761880_at) / RFU 11764098_at / Fold change /veh 11764098_at / RFU SAMD14 (11745864_x_at) / Fold change /veh SAMD14 (11745864_x_at) / RFU NPB (11741838_a_at) / Fold change /veh NPB (11741838_a_at) / RFU TMPRSS6 (11731388_a_at) / Fold change /veh TMPRSS6 (11731388_a_at) / RFU KRTAP10-2 (11738614_at) / Fold change /veh KRTAP10-2 (11738614_at) / RFU ARHGAP8 /// PRR5-ARHGAP8 (11727945_x_at) / Fold change /veh ARHGAP8 /// PRR5-ARHGAP8 (11727945_x_at) / RFU KRTAP5-7 /// NADSYN1 (11734609_at) / Fold change /veh KRTAP5-7 /// NADSYN1 (11734609_at) / RFU RASL12 (11751679_a_at) / Fold change /veh RASL12 (11751679_a_at) / RFU CDKN2B (11736163_a_at) / Fold change /veh CDKN2B (11736163_a_at) / RFU PRF1 (11729649_at) / Fold change /veh PRF1 (11729649_at) / RFU, ZNF638 /// ZNF638-IT1 / Fold change vs veh, ZNF638 /// ZNF638-IT1 / RFU, PANK3 / Fold change vs veh, PANK3 / RFU, SH3YL1 / Fold change vs veh, SH3YL1 / RFU, ZEB2 / Fold change vs veh, ZEB2 / RFU, NRIP1 / Fold change vs veh, NRIP1 / RFU, PTTG1IP / Fold change vs veh, PTTG1IP / RFU, CAPN2 / Fold change vs veh, CAPN2 / RFU, MED14 / Fold change vs veh, MED14 / RFU, SNORA58 / Fold change vs veh, SNORA58 / RFU, C1orf63 / Fold change vs veh, C1orf63 / RFU, LRRFIP1 / Fold change vs veh, LRRFIP1 / RFU, NDUFAF7 / Fold change vs veh, NDUFAF7 / RFU, SLC12A2 / Fold change vs veh, SLC12A2 / RFU, IBTK / Fold change vs veh, IBTK / RFU, ESF1 / Fold change vs veh, ESF1 / Fold change vs veh, TMEM50B / RFU, TAOK1 / Fold change vs veh, TAOK1 / RFU, ACBD3 / Fold change vs veh, ACBD3 / RFU, TMA16 / Fold change vs veh, TMA16 / RFU, RWDD3 / Fold change vs veh, RWDD3 / RFU, BCAT1 / Fold change vs veh, BCAT1 / RFU, EDEM3 / Fold change vs veh, EDEM3 / RFU, TMEM33 / Fold change vs veh, TMEM33 / RFU, WDR75 / Fold change vs veh, WDR75 / RFU, AHCTF1 / Fold change vs veh, AHCTF1 / RFU, TFRC / Fold change vs veh, TFRC / RFU, ZDHHC17 / Fold change vs veh, ZDHHC17 / RFU, NOM1 / Fold change vs veh, NOM1 / RFU, ARL8B / Fold change vs veh, ARL8B / RFU, ZBTB11 / Fold change vs veh, ZBTB11 / RFU, TAMM41 / Fold change vs veh, TAMM41 / RFU, KIAA1704 /// LOC100996395 / Fold change vs veh, KIAA1704 /// LOC100996395 / RFU, ING1 / Fold change vs veh, ING1 / RFU, TRMT61B / Fold change vs veh, TRMT61B / RFU, FUBP3 / Fold change vs veh, FUBP3 / RFU, TP53 / Fold change vs veh, TP53 / RFU, TNKS2 / Fold change vs veh, TNKS2 / RFU, ZFP14 / Fold change vs veh, ZFP14 / RFU, ACTR2 / Fold change vs veh, ACTR2 / RFU, PPP3R1 / Fold change vs veh, PPP3R1 / RFU, PIK3R1 / Fold change vs veh, PIK3R1 / RFU, HNRNPA1 / Fold change vs veh, HNRNPA1 / RFU, RNF170 / Fold change vs veh, RNF170 / RFU, ZNF28 / Fold change vs veh, ZNF28 / RFU, RNGTT / Fold change vs veh, RNGTT / RFU, OGT / Fold change vs veh, OGT / RFU, BRD1 / Fold change vs veh, BRD1 / RFU, MARS / Fold change vs veh, MARS / RFU, ZNF655 / Fold change vs veh, ZNF655 / RFU, FAHD1 / Fold change vs veh, FAHD1 / RFU, BDP1 / Fold change vs veh, BDP1 / RFU, LRRCC1 / Fold change vs veh, LRRCC1 / RFU, ARID1A / Fold change vs veh, ARID1A / RFU, ZNF146 / Fold change vs veh, ZNF146 / RFU, ZNF330 / Fold change vs veh, ZNF330 / RFU, GPN3 / Fold change vs veh, GPN3 / RFU, C9orf123 / Fold change vs veh, C9orf123 / RFU, N4BP2L2 / Fold change vs veh, N4BP2L2 / RFU, ARFIP1 / Fold change vs veh, ARFIP1 / RFU, FAM179B / Fold change vs veh, FAM179B / RFU, BCL10 / Fold change vs veh, BCL10 / RFU, UHRF1BP1L / Fold change vs veh, UHRF1BP1L / RFU, BET1 / Fold change vs veh, BET1 / RFU, CNOT2 / Fold change vs veh, CNOT2 / RFU, ZNF268 / Fold change vs veh, ZNF268 / Fold change vs veh, ZNF507 / RFU, DGCR2 / Fold change vs veh, DGCR2 / RFU, WDSUB1 / Fold change vs veh, WDSUB1 / Fold change vs veh, HSP90B1 /// MIR3652 / RFU, ADSS / Fold change vs veh, ADSS / RFU, GK / Fold change vs veh, GK / RFU, ZNF148 / Fold change vs veh, ZNF148 / RFU, TAF9 / Fold change vs veh, TAF9 / RFU, SLC1A5 / Fold change vs veh, SLC1A5 / RFU, SLMO2 / Fold change vs veh, SLMO2 / RFU, ABCC4 / Fold change vs veh, ABCC4 / RFU, LOC101060439 /// RAP1B / Fold change vs veh, LOC101060439 /// RAP1B / RFU, RFX7 / Fold change vs veh, RFX7 / RFU, GTPBP10 / Fold change vs veh, GTPBP10 / RFU, CNEP1R1 / Fold change vs veh, CNEP1R1 / RFU, BIVM-ERCC5 /// ERCC5 / Fold change vs veh, BIVM-ERCC5 /// ERCC5 / RFU, ILF3 / Fold change vs veh, ILF3 / RFU 11762660_at / Fold change /veh 11762660_at / RFU VCAN (11757783_s_at) / Fold change /veh VCAN (11757783_s_at) / RFU DDX43 (11728927_at) / Fold change /veh DDX43 (11728927_at) / RFU KRT8 (11758188_x_at) / Fold change /veh KRT8 (11758188_x_at) / RFU NKD1 (11759106_at) / Fold change /veh NKD1 (11759106_at) / RFU SRD5A1 (11742802_a_at) / Fold change /veh SRD5A1 (11742802_a_at) / RFU TPSAB1 /// TPSB2 (11721975_s_at) / Fold change /veh TPSAB1 /// TPSB2 (11721975_s_at) / RFU GSTM3 (11746129_a_at) / Fold change /veh GSTM3 (11746129_a_at) / RFU IL23R (11737362_x_at) / Fold change /veh IL23R (11737362_x_at) / RFU TMEM51 (11727254_a_at) / Fold change /veh TMEM51 (11727254_a_at) / RFU PIWIL2 (11732686_x_at) / Fold change /veh PIWIL2 (11732686_x_at) / RFU ORM1 (11744905_x_at) / Fold change /veh ORM1 (11744905_x_at) / RFU CCDC152 (11743942_at) / Fold change /veh CCDC152 (11743942_at) / RFU ECM1 (11717891_a_at) / Fold change /veh ECM1 (11717891_a_at) / RFU IL23R (11748794_a_at) / Fold change /veh IL23R (11748794_a_at) / RFU TNFAIP8L3 (11732012_x_at) / Fold change /veh TNFAIP8L3 (11732012_x_at) / RFU MBOAT4 (11741988_at) / Fold change /veh MBOAT4 (11741988_at) / RFU 11764193_at / Fold change /veh 11764193_at / RFU TMEM53 (11763286_at) / Fold change /veh TMEM53 (11763286_at) / RFU MAGEB2 (11727129_at) / Fold change /veh MAGEB2 (11727129_at) / RFU TMEM200A (11744735_a_at) / Fold change /veh TMEM200A (11744735_a_at) / RFU CCDC152 (11751479_a_at) / Fold change /veh CCDC152 (11751479_a_at) / RFU FAM211A (11726209_a_at) / Fold change /veh FAM211A (11726209_a_at) / RFU RGS16 (11746705_a_at) / Fold change /veh RGS16 (11746705_a_at) / RFU VCAN (11755009_s_at) / Fold change /veh VCAN (11755009_s_at) / RFU RHOB (11743442_s_at) / Fold change /veh RHOB (11743442_s_at) / RFU RGS16 (11720943_a_at) / Fold change /veh RGS16 (11720943_a_at) / RFU RGS16 (11720944_at) / Fold change /veh RGS16 (11720944_at) / RFU, VPS4B / Fold change vs veh, VPS4B / RFU, CREB1 / Fold change vs veh, CREB1 / RFU, DNAJC13 / Fold change vs veh, DNAJC13 / RFU, GNAQ / Fold change vs veh, GNAQ / RFU, CDK5R1 / Fold change vs veh, CDK5R1 / RFU, ZRANB3 / Fold change vs veh, ZRANB3 / RFU, CUL4A / Fold change vs veh, CUL4A / RFU, CCNY / Fold change vs veh, CCNY / RFU, UFL1 / Fold change vs veh, UFL1 / RFU, COG3 / Fold change vs veh, COG3 / RFU, DIAPH2 / Fold change vs veh, DIAPH2 / RFU, SKA2 / Fold change vs veh, SKA2 / RFU, AFF3 / Fold change vs veh, AFF3 / RFU, LMF1 / Fold change vs veh, LMF1 / RFU, IPO11 / Fold change vs veh, IPO11 / RFU, DFFB / Fold change vs veh, DFFB / RFU, FOXP1 / Fold change vs veh, FOXP1 / RFU, CARD8 / Fold change vs veh, CARD8 / RFU, STRN3 / Fold change vs veh, STRN3 / RFU, ADK / Fold change vs veh, ADK / RFU, RASSF2 / Fold change vs veh, RASSF2 / RFU, WIPF1 / Fold change vs veh, WIPF1 / RFU, LARP1B / Fold change vs veh, LARP1B / RFU, RASA1 / Fold change vs veh, RASA1 / RFU, RB1 / Fold change vs veh, RB1 / RFU, PPFIA1 / Fold change vs veh, PPFIA1 / RFU, MAT2A / Fold change vs veh, MAT2A / RFU, CCT5 / Fold change vs veh, CCT5 / RFU, WDR92 / Fold change vs veh, WDR92 / RFU, CUX1 / Fold change vs veh, CUX1 / RFU, TTC7A / Fold change vs veh, TTC7A / RFU, TMEM135 / Fold change vs veh, TMEM135 / RFU, DEPTOR / Fold change vs veh, DEPTOR / RFU, CPM / Fold change vs veh, CPM / RFU, DNAJB6 / Fold change vs veh, DNAJB6 / RFU, CACNA2D3 / Fold change vs veh, CACNA2D3 / RFU, DTX4 / Fold change vs veh, DTX4 / RFU, TFCP2 / Fold change vs veh, TFCP2 / RFU, GMCL1 /// GMCL1P1 / Fold change vs veh, GMCL1 /// GMCL1P1 / RFU, AEBP2 / Fold change vs veh, AEBP2 / RFU, SNHG1 /// SNORD22 /// SNORD25 /// SNORD26 /// SNORD27 /// SNORD28 /// SNORD29 /// SNORD31 / Fold change vs veh, SNHG1 /// SNORD22 /// SNORD25 /// SNORD26 /// SNORD27 /// SNORD28 /// SNORD29 /// SNORD31 / Fold change (Aza/veh), C12orf56 (ProbeSet 11735607_a_at) / Fold change (ACY-1035/veh), C12orf56 (ProbeSet 11735607_a_at) / Fold change (Aza/veh), FGFR1OP (ProbeSet 11751329_s_at) / Fold change (ACY-1035/veh), FGFR1OP (ProbeSet 11751329_s_at) / Fold change (Aza/veh), VPS36 (ProbeSet 11739960_a_at) / Fold change (ACY-1035/veh), VPS36 (ProbeSet 11739960_a_at) / RFU SYPL1 (11715823_x_at) / Fold change /veh SYPL1 (11715823_x_at) / RFU IGFBP7 (11715501_s_at) / Fold change /veh IGFBP7 (11715501_s_at) / RFU REEP3 (11722064_at) / Fold change /veh REEP3 (11722064_at) / RFU IGLL1 (11728026_x_at) / Fold change /veh IGLL1 (11728026_x_at): dose or concentration left out as unconfirmed
Details: MV-4-11 cells, 48 hours

Structure (SMILES): Nc1ccc(-c2cccs2)cc1NC(=O)c1ccc2c(c1)cc(C1CC1)n2CCN1CCOCC1 [ACY-1035]
- Fold change /veh PRF1 (11729649_at): 1.05
